Measured values taken from article PMC11953442, “PIP2-mediated oligomerization of the endosomal sodium/proton exchanger NHE9” (Nature Communications, 2025).
Where a chain is given by its changes, count along the chain named. Numbers in names are those of the source.

Experiments:
NHE9* = target: T1, NHE9* (Equus caballus, UniProt F7B113); assay: GFP-based thermal shift assay; assay type: binding; conditions: 0.1 mg/ml lipid; DDM, CHS, octyl glucoside; NHE9*-GFP fusion
T1 construct: gene SLC9A9; residues 8-575 of 644, C-terminally truncated; TEV-GFP-TwinStrep-His8 from S. cerevisiae FGY217; GFP kept for thermal shift, cut for cryo-EM; homodimer
T1 sequence (F7B113 8-575): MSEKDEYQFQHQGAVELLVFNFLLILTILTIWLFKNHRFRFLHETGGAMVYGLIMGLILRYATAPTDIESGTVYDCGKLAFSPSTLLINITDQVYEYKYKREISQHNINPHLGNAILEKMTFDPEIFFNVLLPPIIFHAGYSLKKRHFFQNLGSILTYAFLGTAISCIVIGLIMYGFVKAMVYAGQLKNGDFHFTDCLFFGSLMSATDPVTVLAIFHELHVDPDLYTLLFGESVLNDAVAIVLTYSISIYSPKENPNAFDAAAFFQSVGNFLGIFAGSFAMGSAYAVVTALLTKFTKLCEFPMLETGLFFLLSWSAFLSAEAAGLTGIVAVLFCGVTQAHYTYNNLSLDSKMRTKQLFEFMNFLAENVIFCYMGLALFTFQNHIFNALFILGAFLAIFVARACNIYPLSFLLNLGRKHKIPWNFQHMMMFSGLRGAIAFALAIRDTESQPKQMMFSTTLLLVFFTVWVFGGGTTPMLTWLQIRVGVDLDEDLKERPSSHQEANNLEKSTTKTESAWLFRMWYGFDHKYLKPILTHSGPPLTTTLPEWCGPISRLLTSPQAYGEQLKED

EcNhaA-mut2 = target: T2, EcNhaA-mut2 (Escherichia coli, UniProt P13738, A109T/Q277G/L296M); assay: cryo-EM structure; assay type: binding; conditions: pH 7.5; DDM; 3 mM cardiolipin added; three lipids at dimer interface; 3.3 A
T2 construct: gene nhaA; from E. coli Lemo21(DE3); homodimer

[1] = target: T3, E. coli NhaA WT-like triple mutant (A109T, Q277G, L296M) (E. coli), P13738; assay: cryo-EM structure; NhaA triple-mutant-GFP fusion in DDM with 3 mM cardiolipin (18:1) added, 20 mM Tris-HCl pH 7.5, 150 mM NaCl, 0.03% DDM; three cardiolipins modelled at the dimer interface; conditions: remark: other sources report otherwise
T3 chain: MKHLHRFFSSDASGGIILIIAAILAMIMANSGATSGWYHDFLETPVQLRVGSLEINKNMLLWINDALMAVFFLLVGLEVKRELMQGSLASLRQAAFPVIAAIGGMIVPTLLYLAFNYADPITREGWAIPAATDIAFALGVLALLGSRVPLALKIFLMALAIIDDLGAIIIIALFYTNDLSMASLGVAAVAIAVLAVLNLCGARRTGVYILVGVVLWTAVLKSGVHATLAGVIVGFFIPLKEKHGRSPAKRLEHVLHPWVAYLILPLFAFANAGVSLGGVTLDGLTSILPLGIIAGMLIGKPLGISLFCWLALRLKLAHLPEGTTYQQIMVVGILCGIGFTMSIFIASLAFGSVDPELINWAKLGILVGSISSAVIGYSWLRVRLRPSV

[2] = target: the molecule itself; assay: cryo-EM structure; NHE9* at pH 6.5, 20 mM Mes-Tris, 150 mM NaCl, 0.003% LMNG, 0.0006% CHS; C2 symmetry; AlphaFold2 multimer model refined into a composite map
[3] = target: the molecule itself; assay: cryo-EM structure; NHE9*CC purified with bovine brain lipid extract, 20 mM Tris-HCl pH 8, 150 mM NaCl, 0.003% LMNG, 0.0006% CHS; C2 symmetry; two PI(3,5)P2 modelled at the dimer interface

CCCCCCCCCCCCCCCC(=O)OC[C@H](COP(=O)(O)O[C@@H]1[C@H](O)[C@H](OP(=O)(O)O)[C@@H](O)[C@H](OP(=O)(O)O)[C@H]1O)OC(=O)CCCCCCCCCCCCCCC [PI(3,5)P2 dipalmitoyl]
dTm (NHE9*): 15 °C

CCCCCCCC/C=C\CCCCCCCC(=O)OC[C@H](COP(=O)(O)OCC(O)COP(=O)(O)OC[C@@H](COC(=O)CCCCCCC/C=C\CCCCCCCC)OC(=O)CCCCCCC/C=C\CCCCCCCC)OC(=O)CCCCCCC/C=C\CCCCCCCC (stereo partly drawn) [cardiolipin (18:1)]
cryo-EM structure (EcNhaA-mut2): map density supported the modelling of cardiolipin at the dimerization interface

CCCCCCCC(=O)OC[C@H](COP(=O)(O)O[C@@H]1[C@H](O)[C@H](O)[C@@H](OP(=O)(O)O)[C@H](OP(=O)(O)O)[C@H]1O)OC(=O)CCCCCCC [PI(4,5)P2 dioctanoyl]
dTm (NHE9*): 8 °C

B1: E. coli NhaA WT-like triple mutant (A109T, Q277G, L296M), P13738 1-388 (natural protein)
chain: T3 chain
stoichiometry N [1]: 2

B2: E. caballus NHE9* (residues 8 to 575), tag removed (domain or fragment, Equus caballus, UniProt F7B113 8-575, looked up)
chain: T1 sequence (F7B113 8-575)
notes: Endosomal Na+/H+ exchanger NHE9 (SLC9A9), Equus caballus, partially truncated on the C-terminal tail, residues 8 to 575 out of a total of 644; also called SLC9A9; not shown: GFP, C-terminal, cleaved; TwinStrep, C-terminal, cleaved; His8, C-terminal, cleaved
stoichiometry N [2]: 2

B3: E. caballus NHE9*CC (NHE9* L139C-I444C double mutant) (domain or fragment, Equus caballus, UniProt F7B113 8-575, looked up)
chain: T1 sequence (F7B113 8-575) with L132C, I437C
notes: Endosomal Na+/H+ exchanger NHE9 (SLC9A9), Equus caballus, residues 8 to 575 out of a total of 644, with L139C and I444C; also called cysteine variant; not shown: GFP, C-terminal, cleaved; TwinStrep, C-terminal, cleaved; His8, C-terminal, cleaved
stoichiometry N [3]: 2
